Data taken from US20050203063A1, “Proteasome pathway inhibitors and related methods” (priority 2003, published 2005).

Experiments:
26S proteasomes = tested on: T1, 26S proteasomes; assay: Binding of UbSic1 to immobilized 26S proteasomes; design: species or system S. cerevisiae; details: 5 μM C92
T1 construct: IC50, deubiquitination of UbSic1; other: titration, epoxomicin-treated proteasomes; other: 5 μM C92
Protocol: FIG. 2. […] (A) Degradation of UbSic1. Purified 26S proteasomes were preincubated in the presence or absence of test compounds. UbSic1 was then added, and degradation assayed as described (6). Py mock refers to the pyridine solvent in which C23 was dissolved which was marginally inhibitory, unlike the 50% DMSO vehicle used for other test compounds. (B) Deubiquitination of UbSic1. […] UbSic1 was then added, and deubiquitination was assayed as described (6). (C) Titration curve with varying concentrations of C92 to determine half-maximal inhibition of deubiquitination. (D) C92 inhibits binding of UbSic1 to 26S proteasomes. Purified 26S proteasomes immobilized on anti-Flag beads were incubated with UbSic1 in the presence or absence of C92 as described (6). Following binding, beads were washed and analyzed by immunoblotting with anti-Sic1 polyclonal serum. (E) Binding of UbSic1 to the polyUb binding proteins Rpn10 and Rad23 is inhibited by C92. […] Following binding, beads were washed and analyzed by immunoblotting. […]
26S proteasomes were immunoprecipitated with anti-Flag resin from tagged and untagged control strains and incubated with 1 mM phenanthroline, 2.5 uM Ub-aldehyde, and 100 μM MG132 at 4° C. for 45 min. […] Washed beads were resuspended in 2×SDS sample buffer and aliquots analyzed by immunoblotting with anti-Sic1.

Gst-Rad23 [1] = molecular target: T2, Gst-Rad23 (Saccharomyces cerevisiae, UniProt P32628); assay: Binding of UbSic1 to Gst-Rad23 on glutathione sepharose beads
T2 construct: made in house
T2 sequence (P32628 1-398): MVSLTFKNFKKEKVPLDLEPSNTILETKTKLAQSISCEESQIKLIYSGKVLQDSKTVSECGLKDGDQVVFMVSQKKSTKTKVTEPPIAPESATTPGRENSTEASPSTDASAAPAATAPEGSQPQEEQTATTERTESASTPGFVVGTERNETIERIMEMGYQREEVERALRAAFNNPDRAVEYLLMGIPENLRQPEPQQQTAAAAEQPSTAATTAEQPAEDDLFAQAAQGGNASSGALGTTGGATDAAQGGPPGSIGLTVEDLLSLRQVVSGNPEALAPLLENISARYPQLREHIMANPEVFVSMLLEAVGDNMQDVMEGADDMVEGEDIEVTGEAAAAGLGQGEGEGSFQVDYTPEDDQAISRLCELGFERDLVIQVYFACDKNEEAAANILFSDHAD
Protocol: (§1) FIG. 2. […] (A) Degradation of UbSic1. Purified 26S proteasomes were preincubated in the presence or absence of test compounds. UbSic1 was then added, and degradation assayed as described (6). Py mock refers to the pyridine solvent in which C23 was dissolved which was marginally inhibitory, unlike the 50% DMSO vehicle used for other test compounds. (B) Deubiquitination of UbSic1. […] UbSic1 was then added, and deubiquitination was assayed as described (6). (C) Titration curve with varying concentrations of C92 to determine half-maximal inhibition of deubiquitination. (D) C92 inhibits binding of UbSic1 to 26S proteasomes. Purified 26S proteasomes immobilized on anti-Flag beads were incubated with UbSic1 in the presence or absence of C92 as described (6). Following binding, beads were washed and analyzed by immunoblotting with anti-Sic1 polyclonal serum. (E) Binding of UbSic1 to the polyUb binding proteins Rpn10 and Rad23 is inhibited by C92. Recombinant Gst-Rpn10 and Gst-Rad23 (1 μg each) were immobilized on glutathione sepharose beads and then incubated with UbSic1 in the presence or absence of C92. Following binding, beads were washed and analyzed by immunoblotting. (F) C92 interacts with multiUb chains. […]
Recombinant Gst-Rpn10 and Gst-Rad23 were immobilized on glutathione sepharose beads. […] Aliquots were analyzed by immunoblotting.

Gst-Rad23 [2] = molecular target: T2, Gst-Rad23; assay: Native gel mobility shift of receptor protein; format: binding
Protocol: as §1, with “chains. Equivalent amounts (5 μg) of purified Gst, Gst-fusion protein or multiUb chains were incubated with C92 or C1 before being loaded on a 5% native polyacryamide gel.” for “chains.”

Gst-Rpn10 = molecular target: T3, Gst-Rpn10 (Saccharomyces cerevisiae, UniProt P38886); assay: Native gel mobility shift of receptor protein; format: binding
T3 construct: made in house
T3 sequence (P38886 1-268): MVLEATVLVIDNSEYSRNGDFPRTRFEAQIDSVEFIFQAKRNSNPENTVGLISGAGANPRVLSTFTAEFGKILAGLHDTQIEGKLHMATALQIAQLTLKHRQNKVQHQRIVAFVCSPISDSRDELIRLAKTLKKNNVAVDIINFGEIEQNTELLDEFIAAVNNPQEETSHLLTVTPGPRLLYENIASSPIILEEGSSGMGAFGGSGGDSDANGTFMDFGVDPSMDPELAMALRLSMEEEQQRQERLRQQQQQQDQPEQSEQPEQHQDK
Protocol: as §1, with “chains. Equivalent amounts (5 μg) of purified Gst, Gst-fusion protein or multiUb chains were incubated with C92 or C1 before being loaded on a 5% native polyacryamide gel.” for “chains.”

SMILES: O=C(Nc1ccc(/C=C/c2ccc(NC(=O)c3cc(S(=O)(=O)O)c4cccnc4c3O)cc2S(=O)(=O)O)c(S(=O)(=O)O)c1)c1cc(S(=O)(=O)O)c2cccnc2c1O [Compound 92]
- inhibition of binding of UbSic1 to 26S proteasomes (26S proteasomes): strongly inhibited binding
- inhibition of binding of UbSic1 to Rad23 (Gst-Rad23 [1]): abolished binding
- native gel mobility of Gst-Rad23 (Gst-Rad23 [2]): not Gst-Rpn10 or Gst-Rad23, was altered
- native gel mobility of Gst-Rpn10 (Gst-Rpn10): not Gst-Rpn10 or Gst-Rad23, was altered
